What all share (conditions): (24 or 48 h)
Assay [1] relates to MTT (mouse pheochromocytoma). Description: efficacy (maximal response) relative to doxorubicin = -100% and DMSO = 0%; higher = less inhibition of viability.
Assay [2] relates to MTT (mouse pheochromocytoma). Description: IC50 of cell viability (ATP content); AC50 where efficacy is positive.
For assay [3], the system named is MTT (mouse pheochromocytoma). Description: IC50 of cell viability (ATP content). The essentials:
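Cells of the MTT mouse pheochromocytoma line, 5 µl per well at 200,000 cells/ml, were grown overnight at 37°C, 5% CO2 in white 1536-well plates with DMEM, 5% FBS and 1% horse serum. Pintool transfer then delivered 23 nl of library compound in DMSO, giving 8 final concentrations from 0.5 nM to 46 µM, for an exposure of 24 or 48 hrs. Luminescence from CellTiter-Glo was read after 15 minutes and referenced to positive-control wells (100%) and DMSO wells (0%). IC50 was calculated with a four-parameter logistic fit.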

Values joined by “and” are separate entries in the source; they are usually repeats but may differ in a detail not shown here. Equal values may be shown once. Where a name gives a salt, the structure may show the parent alone.

In the case of `CC(=O)Nc1ccc(NC(=S)NC(=O)c2ccc(C(C)(C)C)cc2)cc1`, the efficacy in assay [1] was -56%. In assay [2], the “IC50 of cell viability” value turned out to be 2.66 µM.

In the case of `Nc1ncn(C2C[C@H](O)[C@@H](CO)O2)c(=O)n1` (stereo not given in full), the efficacy in assay [1] was -51.6%. Also, in assay [2], the “IC50 of cell viability” value amounted to 0.0668 µM.

Consider `O=C(CCl)c1ccc(Cl)cc1Cl` [2,2',4'-Trichloroacetophenone], for which, in assay [1], the efficacy was -84.4% and -71.5%. For the same molecule, the “IC50 of cell viability” value in assay [2] is 8.63 µM and 3.76 µM.

Take `F\C1=C\NC(=O)NC1=O` [5-Fluorouracil]: in assay [1], the efficacy was -67.4%. The “IC50 of cell viability” value in assay [2] came out at 11.9 µM.

`Sc1ncnc2[nH]cnc12` [6-Mercaptopurine monohydrate]: the efficacy in assay [1] was -78.1%. For the same molecule, in assay [2], the “IC50 of cell viability” value was determined as 21.1 µM.

In the case of `NC/1=N/C(S)C/2\N=C/NC2=N1` (stereo not given) [6-Thioguanine (6-TG)], the efficacy in assay [1] was -78.6%. The “IC50 of cell viability” value in assay [2] stood at 21.1 µM.

Turning to `Cl.Nc1c2ccccc2nc2ccccc12.O` [9-Aminoacridine HCl H2O], in assay [1], the efficacy is -110%. Also, in assay [2], the “IC50 of cell viability” value amounted to 21.1 µM.

Consider `C=CCNC1=C2C[C@@H](C)C[C@H](OC)[C@H](O)[C@@H](C)/C=C(\C)[C@H](OC(N)=O)[C@@H](OC)C=C/C=C(\C)C(=O)NC(=CC1=O)C2=O` [17-Allylamino-geldanamycin], for which the efficacy in assay [1] is -80.6%. Further, the “IC50 of cell viability” value in assay [2] worked out at 4.22 µM.

In the case of `Cl.CC(C)(C)[C@]1(O)CC[N@@]2C[C@H]3C4=C(CCC5=CC=CC(=C35)[C@@H]2C1)C=CC=C4` [(?)-Butaclamol hydrochloride], in assay [1], the efficacy was -70.8%. In addition, the “IC50 of cell viability” value in assay [2] stood at 21.1 µM.

Turning to `CC[C@@]1(O)C[C@H](O[C@H]2C[C@@H](N(C)C)[C@@H](O[C@H]3C[C@@H](O)[C@@H](O[C@H]4CCC(=O)[C@@H](C)O4)[C@@H](C)O3)[C@@H](C)O2)c2c(cc3c(c2O)C(=O)c2c(O)cccc2C3=O)[C@H]1C(=O)OC` [ACLARUBICIN HYDROCHLORIDE], the efficacy in assay [1] is -41.5%. In assay [2], the “IC50 of cell viability” value came to 2.11 µM.

`C[n+]1c2cc(N)ccc2cc2ccc(N)cc21.[Cl-]` [ACRIFLAVINIUM HYDROCHLORIDE]: in assay [1], the efficacy is -50.3%. In addition, in assay [2], the “IC50 of cell viability” value amounted to 10.6 µM.

On to `C[S+](CC[C@H](N)C(=O)O)C[C@H]1O[C@@H](n2cnc3c(N)ncnc32)[C@H](O)[C@@H]1O` (stereo not given in full) [ADEMETIONINE], for which the efficacy in assay [1] was -49.1%. In addition, the “IC50 of cell viability” value in assay [2] stood at 21.1 µM.

In the case of `O=S(=O)([O-])c1cc(O)c2c(/N=N/c3ccc(Nc4ccccc4)c4c(S(=O)(=O)[O-])cccc34)cc(S(=O)(=O)[O-])cc2c1` [ANAZOLENUM NATRICUM], in assay [1], the efficacy was -33.8%. Moreover, the “IC50 of cell viability” value in assay [2] turned out to be 2.37 µM.

Regarding `CC[NH+](CC)CCCN(c1ccccc1)C1Cc2ccccc2C1` [APRINDINE HYDROCHLORIDE], the efficacy in assay [1] was -107%. For the same molecule, the “IC50 of cell viability” value in assay [2] was 26.6 µM.

Take `COc1ccc(CCN2CCC(Nc3nc4ccccc4n3Cc3ccc(F)cc3)CC2)cc1` [ASTEMIZOLE]: in assay [1], the efficacy is -74.8%. In addition, the “IC50 of cell viability” value in assay [2] stood at 16.8 µM.

As for `CCCSc1ccc2[nH]c(NC(=O)OC)nc2c1` [Albendazole], the efficacy in assay [1] is -57.9%. Also, the “IC50 of cell viability” value in assay [2] came to 0.718 µM.

As for `N=c1ccn2c(n1)O[C@H]1[C@H](O)[C@@H](CO)O[C@H]12` [Ancitabina], the efficacy in assay [1] was -68.2%. Besides, in assay [2], the “IC50 of cell viability” value stood at 2.37 µM.

On to `C[C@@H]1CC[C@H]2[C@@H](C)C(=O)O[C@@H]3O[C@]4(C)CC[C@@H]1[C@@]32OO4` [Artemisinin], for which, in assay [1], the efficacy was -62%. For the same molecule, the “IC50 of cell viability” value in assay [2] was 10.6 µM.

For `CC[P](CC)(CC)=[Au][S][C@@H]1OC(COC(C)=O)[C@@H](OC(C)=O)[C@H](OC(C)=O)C1OC(C)=O` (stereo not given in full) [Auranofin], in assay [1], the efficacy is -86.7%. In assay [2], the “IC50 of cell viability” value was found to be 2.66 µM.

As to `NC/1=N/C(=O)N(/C=N1)[C@@H]2O[C@H](CO)[C@@H](O)[C@H]2O` [Azacitidine], in assay [1], the efficacy was -71.2%. Moreover, the “IC50 of cell viability” value in assay [2] worked out at 1.33 µM.

For `C/C(=C(/CCOC(=O)C(C)C)SS/C(CCOC(=O)C(C)C)=C(\C)N(C=O)Cc1cnc(C)nc1N)N(C=O)Cc1cnc(C)nc1N` [BISIBUTHIAMINE], in assay [1], the efficacy is -43.4%. For the same molecule, the “IC50 of cell viability” value in assay [2] worked out at 21.1 µM.

As to `CC(C)C[C@@H](NC(=O)[C@@H](Cc1ccccc1)NC(=O)c1cnccn1)B(O)O` [BORTEZOMIB], the efficacy in assay [1] was -74.6%. For the same molecule, the “IC50 of cell viability” value in assay [2] worked out at 0.596 µM.

Regarding `CC(C)(Cc1c[nH]c2ccccc12)NCC(O)COc1ccccc1C#N` (stereo not given) [BUCINDOLOLUM], the efficacy in assay [1] was -41.7%. In assay [2], the “IC50 of cell viability” value amounted to 11.9 µM.

As for `[H]/N=C(/c1ccc(OCCCCCC)c2ccccc12)N(CCCC)CCCC` [BUNAMIDINE HYDROCHLORIDE], the efficacy in assay [1] is -96.3%. The “IC50 of cell viability” value in assay [2] was determined as 18.8 µM.

Regarding `CC(C)(C)CC(C)(C)c1ccc(OCCOCC[N+](C)(C)Cc2ccccc2)cc1` [Benzethonium chloride], in assay [1], the efficacy is -94.4%. Also, in assay [2], the “IC50 of cell viability” value amounted to 10.6 µM.

On to `COc1ccc2cc3[n+](cc2c1OC)CCc1cc2c(cc1-3)OCO2` [Berberine chloride], for which the efficacy in assay [1] was -53.9%. Besides, the “IC50 of cell viability” value in assay [2] was determined as 4.22 µM.

`CCN(CC)C1=CC=C(C=C1)C(\C2=CC=CC=C2)=C3\C=C/C(/C=C3)=[N+](\CC)CC` [Brilliant Green]: in assay [1], the efficacy was -108%. In assay [2], the “IC50 of cell viability” value was 1.68 µM.

`O=[N+]([O-])C(Br)(CO)CO` [Bronopol]: the efficacy in assay [1] was -58.4%. Besides, the “IC50 of cell viability” value in assay [2] was 15 µM.

For the molecule `CC1=CC(=CC=C1N)C(\C2=CC=C(N)C=C2)=C3/C=CC(=N)C=C3` [C.I. Basic Violet 14, free base], the efficacy in assay [1] was -47.4%. The “IC50 of cell viability” value in assay [2] was determined as 2.37 µM.

Take `CC(C)OC(=O)Nc1ccc2[nH]c(-c3cscn3)nc2c1` [CAMBENDAZOLE]: the efficacy in assay [1] was -45.2%. The “IC50 of cell viability” value in assay [2] was 8.41 µM.

`CN1CCN(CC1)C/2=N/C3=CC=CC=C3NC4=C2C=C(C)S4` [olanzapine]: the “IC50 of cell viability” value in assay [3] is > 46 µM.

Regarding `C[C@@H]1O[C@@H](O[C@H]2C[C@@H](O)[C@@]3(CO)[C@H]4[C@H](O)C[C@]5(C)[C@H](CC[C@]5(O)[C@H]4CC[C@@]3(O)C2)\C6=C\C(=O)OC6)[C@@H](O)[C@H](O)[C@H]1O` [ouabain], in assay [3], the “IC50 of cell viability” value was > 46 µM.

Consider `CC(=O)Nc1ccc(C(=O)O)cc1` [p-Acetamidobenzoic acid], for which, in assay [3], the “IC50 of cell viability” value is > 46 µM.

As to `Nc1ccc(C(=O)O)cc1` [p-Amino benzoic acid], the “IC50 of cell viability” value in assay [3] was > 46 µM.

As to `Cl.Nc1cc(Cl)c(N=C2NCCN2)c(Cl)c1` [p-Aminoclonidine hydrochloride], in assay [3], the “IC50 of cell viability” value is > 46 µM.

Turning to `Nc1ccc(O)cc1` [p-Aminophenol], the “IC50 of cell viability” value in assay [3] was > 46 µM.

For `Cc1cc(O)ccc1Cl` [p-Chloro-m-cresol], the “IC50 of cell viability” value in assay [3] is > 46 µM.

On to `Nc1ccc(Cl)cc1` [p-Chloroaniline], for which the “IC50 of cell viability” value in assay [3] was > 46 µM.

With `Oc1ccc(Cl)cc1` [p-Chlorophenol], in assay [3], the “IC50 of cell viability” value was > 46 µM.

As for `NC(Cc1ccc(Cl)cc1)C(=O)O` (stereo not given) [p-Chlorophenylalanine], in assay [3], the “IC50 of cell viability” value is > 46 µM.

As to `Cc1ccc(O)cc1` [p-Cresol], in assay [3], the “IC50 of cell viability” value was > 46 µM.

Take `CC(C)(C)c1ccc(O)c(O)c1` [p-tert-Butylcatechol]: the “IC50 of cell viability” value in assay [3] was > 46 µM.

Regarding `CCC(C)(C)c1ccc(O)cc1` [p-tert-Pentylphenol], the “IC50 of cell viability” value in assay [3] is > 46 µM.

Regarding `O=P(O)(O)O` [phosphoric acid], the “IC50 of cell viability” value in assay [3] was > 46 µM.

Consider `CC(C)n1nc(-c2cc3cc(O)ccc3[nH]2)c2c(N)ncnc21` [pp242], for which the “IC50 of cell viability” value in assay [3] is > 46 µM.

Regarding `OC(CCN1CCCCC1)(c1ccccc1)c1ccccc1` [pridinol], the “IC50 of cell viability” value in assay [3] is > 46 µM.

Turning to `OCCOCCN1CCN(CC1)C/2=N/C3=CC=CC=C3SC4=CC=CC=C24` [quetiapine], the “IC50 of cell viability” value in assay [3] is > 46 µM.

Turning to `CN1[C@@H]2C[C@H](OC(=O)[C@@H](CO)c3ccccc3)C[C@@H]1[C@H]1O[C@H]12` [scopolamine], the “IC50 of cell viability” value in assay [3] was > 46 µM.

Regarding `Nc1ccc([S+](=O)([O-])Nc2ncccn2)cc1.[Ag]` [sulfadiazine], the “IC50 of cell viability” value in assay [3] is > 46 µM.

Turning to `Nc1ccc([S+](=O)([O-])Nc2cnc3ccccc3n2)cc1` [sulfaquinoxaline], the “IC50 of cell viability” value in assay [3] is > 46 µM.

For `CC(C)(C)c1cc(O)ccc1O` [tert-Butylhydroquinone], in assay [3], the “IC50 of cell viability” value was > 46 µM.

In the case of `CC(C)C(C)(C)C(C)(C)C(C)(C)S` [tert-Dodecanethiol], in assay [3], the “IC50 of cell viability” value was > 46 µM.

`Cc1ccc(/C(=C\CN2CCCC2)c2ccccn2)cc1` [trans-TRIPROLIDINE]: in assay [3], the “IC50 of cell viability” value is > 46 µM.

Consider `COC[C@@H](c1ccc(C(F)(F)F)cc1)N1CCN(C2(C)CCN(C(=O)c3c(C)ncnc3C)CC2)C[C@@H]1C` [vicriviroc maleate], for which, in assay [3], the “IC50 of cell viability” value was > 46 µM.

Take `OCC(CO)NC1C[C@](O)(CO)[C@@H](O)[C@H](O)[C@H]1O` (stereo not given in full) [voglibose]: in assay [3], the “IC50 of cell viability” value was > 46 µM.

These data come from the supplement of paper PMC3974653.
